In one data set the test system is AKR1C3. The note with it: reported in literature; cited from earlier work.
For data set [1] the following is noted: cited from earlier work; for AUC0-t / Cmax / T1/2 / Tmax: patients, mean.
In data set [2] the test system is H460 cell line. The data set is described as follows: Cell proliferation inhibition by combining Naproxen or TH-3021 and AST-3424 in different sequence of administration (CTG). The format is cell-based, human. The following applies: for effect of subsequent addition on the efficacy of AST-3424: Group 3: added after 2 h AST-3424 pretreatment and washing. As to the method: The following are the different treatment methods. […] The plate was shaken gently to ensure uniform mixing, and placed in the incubator for 2 hours. […] The plate was shaken gently to ensure uniform mixing, and placed in the incubator for 2 hours. Subsequently, the plate was washed to remove the compound, and placed in the incubator at 37° C. with 5% CO2 for further 72 hours. […] The plate was shaken gently to ensure uniform mixing, and placed in the incubator for 2 hours. Subsequently, the plate was washed to remove the compounds, and placed in the incubator at 37° C. with 5% CO2 for 72 hours. […] The plate was shaken gently to ensure uniform mixing, and placed in the incubator for 2 hours. […] The plate was shaken gently to ensure uniform mixing, and placed in the incubator for 2 hours. Subsequently, the plate was washed to remove the compounds, and placed in the incubator at 37° C. with 5% CO2 for further 72 hours. […] The plate was shaken gently to ensure uniform mixing, and placed in the incubator for 2 hours. […] The plate was shaken gently to ensure uniform mixing, and placed in the incubator for 2 hours. Subsequently, the plate was washed to remove the compounds, and placed in the incubator at 37° C. with 5% CO2 for further 72 hours. b) Administrating single drug: after 24 hours of cell seeding, the compound was administered alone. […] The plate was shaken gently to ensure uniform mixing, and placed in the incubator at 37° C. with 5% CO2 for 2 hours. Subsequently, the compound was washed off, and each well was added with fresh medium. The plate was placed in the incubator at 37° C. with 5% CO2 for further 72 hours.

Data set [3] relates to H460 cell line. Description: In vitro cell proliferation inhibition with the drug combination (CTG method). The following applies: combined with AST-3424. The format is cell-based, human. Here is the method: • a) H460 cells (human non-small lung cancer cells, AKR1C3 enzyme highly expressed) were cultured in RPMI-1640 medium, added with 10% FBS and 1% double antibody, and placed at 37° C. and 5% CO2 for culturing.
• a) The cells were routinely cultured until the cell saturation was 80%-90%, and when the required quantity was reached, the cells were collected. • b) The cells were resuspended with the corresponding medium and cell counts were performed to prepare a cell suspension with appropriate density. • c) The cell suspension was added to a 96-well plate with 100 μL per well, and the cell density was 2,000 cells per well. • d) The cells were incubated overnight in an incubator at 37° C. with 5% CO2. 1.1.3 Treating Cells with Compound (72 Hours)
AST-3424 alone: after 24 hours of cell seeding, AST-3424 was administered alone. Specifically, each well was supplemented with 99 μL of growth medium, and then added with 1 μL of the prepared AST-3424 solution to form different concentrations of AST-3424. The plate was shaken gently to ensure uniform mixing, and placed in an incubator at 37° C. with 5% CO2.
The cell plates were placed in the incubator for 72 hours.
1.1.4 Treating Cells with Compound (2 Hours) • a) Administrating single drug: after 24 hours of cell seeding, AST-3424 was administered alone. Specifically, each well was supplemented with 99 μL of growth medium, and then added with 1 μL of the prepared AST-3424 solution to form different concentrations of AST-3424. The plate was shaken gently to ensure uniform mixing, and placed in the incubator for 2 hours. […] The plate was shaken gently to ensure uniform mixing. After the plate was placed in the incubator for 2 hours, 1 μL of the prepared AST-3424 solution was added to form different concentrations of AST-3424. The plate was shaken gently to ensure uniform mixing, and placed in the incubator at 37° C. with 5% CO2 for another 2 hours. Then, the supernatant was discarded, and the remainder was washed twice with growth medium and added with 200 μL of fresh medium.
1.1.6 Detecting with CTG Method • a) The cell plate to be tested was placed at room temperature to equilibrium for 30 minutes, and 100 μL of culture medium was discarded from each well. • b) 25 μL CTG reagent (CelltiterGlo kit) was added to each well. The plate was placed on a fast shaker to shake for 2 minutes, and then placed at room temperature away from light for 30 minutes. • c) The chemiluminescent signal value was read with multifunctional microplate reader at reading time of 1000 ms.
IC50 was calculated with GraphPad Prism 5 software, and the IC50 (half maximal inhibitory concentration) of the compound was obtained using the following nonlinear fitting formula: […]

[4] abbreviates: OBI-3424 dose level 1 mg/m^2, infusion.
Setting [5] is: OBI-3424 dose level 2 mg/m^2, infusion.
Setting [6] is: OBI-3424 dose level 4 mg/m^2, infusion.
Setting [7] is: OBI-3424 dose level 6 mg/m^2, infusion.
The mark [8] stands for this setting: OBI-3424 dose level 8 mg/m^2, infusion.
[9] abbreviates: OBI-3424 dose level 10 mg/m^2, infusion.
Where [10] appears, read: OBI-3424 dose level 12 mg/m^2, infusion.
[11] abbreviates: OBI-3424 dose level 14 mg/m^2, infusion.

SMILES strings stand for the structures. Where two headings read alike, the source gives them in different places.

As to `CC1=C(CC(=O)O)c2cc(F)ccc2/C1=C\c1ccc([S+](C)[O-])cc1` (stereo not shown) [Sulindac], in the data set with AKR1C3, the AKR1C3 inhibitory activity result is reported as “have AKR1C3 inhibitory activity”.

As for `O=P(O)(N1CC1)N1CC1` [OBI-2660], the “AUC0-t” value in data set [1] (setting [4]) is 7.30 ng·h/mL; in data set [1] (setting [5]), 10.00 ng·h/mL; in data set [1] (setting [6]), 19.30 ng·h/mL; in data set [1] (setting [7]) it was 27.40 ng·h/mL; in data set [1] (setting [8]), 32.80 ng·h/mL; in data set [1] (setting [9]), 29.20 ng·h/mL. In addition, the “AUC0-t” value in data set [1] (setting [10]) was 56.60 ng·h/mL; in data set [1] (setting [11]), 45.60 ng·h/mL. The “Cmax” value is 1.70 ng/mL in data set [1] (setting [4]); 2.30 ng/mL in data set [1] (setting [5]); 5.00 ng/mL in data set [1] (setting [6]); 6.80 ng/mL in data set [1] (setting [7]); 8.50 ng/mL in data set [1] (setting [8]); 10.10 ng/mL in data set [1] (setting [9]). Also, the figures for the maximum concentration (Cmax) in data set [1] (setting [10]) and in data set [1] (setting [11]) were 13.10 ng/mL and 11.20 ng/mL, respectively. In addition, the “T1/2” value was 3.08 h in data set [1] (setting [4]); 2.48 h in data set [1] (setting [5]); 2.00 h in data set [1] (setting [6]); 2.09 h in data set [1] (setting [7]); 1.87 h in data set [1] (setting [8]); 2.99 h in data set [1] (setting [9]). Besides, the “T1/2” value in data set [1] (setting [10]) was 2.41 h; in data set [1] (setting [11]) it was 2.46 h. For the same compound, the “Tmax” value is reported as 1.75 h in data set [1] (setting [4]); 1.67 h in data set [1] (setting [5]); 1.33 h in data set [1] (setting [6]); 1.75 h in data set [1] (setting [7]); 1.44 h in data set [1] (setting [8]); 1.67 h in data set [1] (setting [9]). Besides, the time of peak concentration (Tmax) is 1.53 h in data set [1] (setting [10]) and 1.75 h in data set [1] (setting [11]). For the same compound, the “accumulation of exposure (Cmax and AUC)” value in data set [1] (between the two doses (Cycle 1 Day1 and Cycle 1 Day8)) is listed as “no accumulation of exposure”.

Take `Cc1cc(CC(=O)O)n(C)c1C(=O)c1ccc(Cl)cc1` [Zomepirac]: the AKR1C3 inhibitory activity result in the data set with AKR1C3 is given as “have AKR1C3 inhibitory activity”.

For `CC(=O)Oc1ccccc1C(=O)O` [Aspirin], the AKR1C3 inhibitory activity entry in the data set on AKR1C3 is on record as “have AKR1C3 inhibitory activity”.

Consider `Cc1cccc(Nc2ccccc2C(=O)O)c1C` [Mefenamic acid], for which the AKR1C3 inhibitory activity result in the data set on AKR1C3 is listed as “have AKR1C3 inhibitory activity”.

Regarding `CC(C(=O)O)c1ccc(-c2ccccc2)c(F)c1` (stereo not shown) [Flurbiprofen], the AKR1C3 inhibitory activity result in the data set with AKR1C3 is listed as “have AKR1C3 inhibitory activity”.

As for `Cc1ccc(C(=O)c2ccc(CC(=O)O)n2C)cc1` [Tolmetin], in the data set with AKR1C3, the AKR1C3 inhibitory activity entry is “have AKR1C3 inhibitory activity”.

In the case of `O=C(O)Cc1ccccc1Nc1c(Cl)cccc1Cl` [Diclofenac], the AKR1C3 inhibitory activity entry in the data set with AKR1C3 is given as “have AKR1C3 inhibitory activity”.

For the compound `CC(=O)Nc1ccc(O)cc1` [Paracetamol], in the data set on AKR1C3, the AKR1C3 inhibitory activity entry is on record as “have AKR1C3 inhibitory activity”.

As for `O=C([O-])c1ccccc1O.[Na+]` [Sodium salicylate], the AKR1C3 inhibitory activity result in the data set on AKR1C3 is on record as “have AKR1C3 inhibitory activity”.

In the case of `O=C(N1CCOCC1)N1CCN(c2ccc(Cl)cc2Cl)CC1` [TH-3021, reference compound], the AKR1C3 inhibitory activity entry in the data set on AKR1C3 is reported as “specific inhibitor of AKR1C3”. Moreover, the “effect of subsequent addition on the efficacy of AST-3424” value in the data set on H460 cell line [2] was “no longer affected the efficacy of AST-3424”. The “difference in IC50 values of AST-3424 (fold)” value in the data set on H460 cell line [2] (group 1 (TH-3021 pretreatment, washed off)) was determined as 6 fold; in the data set with H460 cell line [2] (groups 2 and 4 (TH-3021 present together with AST-3424)), 200 fold.

Turning to `COc1ccc2cc([C@H](C)C(=O)O)ccc2c1` [Naproxen, reference compound], the “effect of the combination on the cell proliferation inhibitory activity of AST-3424” value in the data set with H460 cell line [3] is on record as “significantly affect”. Moreover, the AKR1C3 inhibitory activity entry with AKR1C3 was “have AKR1C3 inhibitory activity”. Also, the “effect of subsequent addition on the efficacy of AST-3424” value with H460 cell line [2] is on record as “no longer affected the efficacy of AST-3424”.

Turning to `Cc1ccc(Cl)c(Nc2ccccc2C(=O)O)c1Cl` [Meclofenamic Acid], the AKR1C3 inhibitory activity entry in the data set on AKR1C3 is recorded as “have AKR1C3 inhibitory activity”.

Regarding `CC(C(=O)O)c1cccc(Oc2ccccc2)c1` (stereo not shown) [Fenoprofen], the AKR1C3 inhibitory activity result in the data set on AKR1C3 is reported as “have AKR1C3 inhibitory activity”.

Take `COc1ccc2c(c1)c(CC(=O)O)c(C)n2C(=O)c1ccc(Cl)cc1` [Indomethacin]: in the data set on AKR1C3, the AKR1C3 inhibitory activity entry is listed as “has AKR1C3 inhibitory activity”.

What is called Cmax is the highest concentration seen after dosing. For orientation: Tmax means the time at which the peak concentration occurs.

Source of the values: patent US20260130928A1, “COMBINATION OF AKR1C3 ACTIVATED ANTICANCER PRODRUG COMPOUND AND ANALGESIC DRUG FOR TREATING CANCER PATIENTS ACCOMPANIED BY PAIN” (ASCENTAWITS PHARMACEUTICALS, LTD., priority 2022, published 2026).
